Where only a bound is given, the exact number is not on record here.

The assay deals with LC3-II. As to the kind of experiment: LC3-II production capacity at 10 μM (Table 4). It counts as cell-based. To be noted: Homo sapiens, 12 h. On the procedure: ARPE-19 was dispensed into a 6-well plate at a concentration of 1×10^5 cells/well and cultured for 24 hours. Then, cells were treated with example 17 compound of the present invention at concentrations of 10, 25, and 50 μM for 12 hours. Then, a cell lysis buffer containing a protease inhibitor was added to prepare a cell lysate. The LC3-II level was measured by Western immunoblotting using an anti-LC3-II antibody (Cell Signaling Technology, MA, USA). As an internal control, an antibody against β-actin (Cell Signaling Technology) was used and measured by Western immunoblotting in the same manner as above, and is shown in FIG. 6 (upper graph).
The autophagy activation effect of example compounds expected to have autophagy activation ability and low cytotoxicity among the example compounds in Table 2 above in human retinal pigment epithelial cells was evaluated according to Experimental Example 7. That is, the autophagy activation effect through the increase of LC3-II was evaluated in a concentration-dependent manner, and the results are shown in FIGS. 15 and 16.

As for `C=CCc1ccc(OC)c(-c2cc(CN3CCNCC3)on2)c1` [Example 29, 3-(5-allyl-methoxyphenyl)-5-(piperazine-1-ylmethyl)isoxazole], the fold induction at 10 µM was found to be 5.8.
Take `COc1ccc(C(F)(F)F)cc1-c1cc(CO)on1` [Example 31, (3-(2-methoxy-5-(trifluoromethyl)phenyl)isoxazole-5-yl)methanol]: the fold induction at 10 µM came to 0.8.
As for `COc1ccc(C(F)(F)F)cc1-c1cc(C(C)(C)O)on1` [Example 32, 2-(3-(2-methoxy-5-(trifluoromethyl)phenyl)isoxazole-5-yl)propan-2-ol], the fold induction at 10 µM was determined as 0.9.
As for `COc1ccc(C(F)(F)F)cc1-c1cc(CCO)on1` [Example 33, 2-(3-(2-methoxy-5-(trifluoromethyl)phenyl)isoxazole-5-yl)ethan-1-ol], the fold induction at 10 µM amounted to 1.5.
As for `COc1cc(C(F)(F)F)ccc1-c1cc(CO)on1` [Example 35, (3-(2-methoxy-4-(trifluoromethyl)phenyl)isoxazole-5-yl)methanol], the fold induction at 10 µM came to 1.1.
On to `COc1ccc(C(F)(F)F)cc1-c1cc(COCC(=O)O)on1` [Example 36, 2-((3-(2-methoxy-5-(trifluoromethyl)phenyl)isoxazole-5-yl)methoxy)acetic acid], for which the fold induction at 10 µM came to 2.3.
With `COc1ccc(C(F)(F)F)cc1-c1cc(CN2CCN(C)C(=O)C2)on1` [Example 37, 4-((3-(2-methoxy-5-(trifluoromethyl)phenyl)isoxazole-5-yl)methyl)-1-methylpiperazine-2-on], the fold induction at 10 µM turned out to be 2.2.
Regarding `COc1ccc(N2CCOCC2)cc1-c1cc(CO)on1` [Example 38, (3-(2-methoxy-5-morpholinophenyl)isoxazole-5-yl)methanol], the fold induction at 10 µM came to 1.2.
For `C=CCc1ccc(OC)c(-c2cc(C(C)(C)O)on2)c1` [Example 39, 2-(3-(5-allyl-2-methoxyphenyl)isoxazole-5-yl)propan-2-ol], the fold induction at 10 µM came out at 0.7.
On to `CCCc1ccc(OC)c(-c2cc(C(C)(C)O)on2)c1` [Example 40, 2-(3-(2-methoxy-5-propylphenyl)isoxazole-5-yl)propan-2-ol], for which the fold induction at 10 µM is 1.6.
For the compound `C=CCc1ccc(OC(F)(F)F)c(-c2cc(CO)on2)c1` [Example 43, (3-(5-allyl-2-(trifluoromethoxy)phenyl)isooxazole-5-yl)methanol], the fold induction at 10 µM is 19.7.
`C=CCc1ccc(-c2cc(CO)on2)c(OC)c1` [Example 44, (3-(4-allyl-2-methoxyphenyl)isoxazole-5-yl)methanol]: the fold induction at 10 µM came to 3.8.
With `COc1ccc(C(C)C)cc1-c1cc(CO)on1` [Example 45, (3-(5-isopropyl-2-methoxyphenyl)isoxazole-5-yl)methanol], the fold induction at 10 µM is 2.5.
For `COc1ccc(C(C)C)cc1-c1cc(CN2CCN(C(=O)OC(C)(C)C)CC2)on1` [Example 46, tert-butyl 4-((3-(5-isopropyl-2-methoxyphenyl)isoxazole-5-yl)methyl)piperazine-1-carboxylate], the fold induction at 10 µM was found to be 1.5.
For `C=CCc1ccc(-c2cc(CN3CCN(C(=O)OC(C)(C)C)CC3)on2)c(OC)c1` [Example 48, tert-butyl 4-((3-(4-allyl-2-methoxyphenyl)isoxazole-5-yl)methyl)piperazine-1-carboxylate], the fold induction at 10 µM is over 15.
As for `C=CCc1ccc(-c2cc(CN3CCNCC3)on2)c(OC)c1` [Example 49, 3-(4-allyl-2-methoxyphenyl)-5-(piperazine-1-ylmethyl)isoxazole], the fold induction at 10 µM is 1.1.
`C=CCc1ccc(OC(F)(F)F)c(-c2cc(CN3CCN(C(=O)OC(C)(C)C)CC3)on2)c1` [Example 50, tert-butyl 4-((3-(5-allyl-2-(trifluoromethoxy)phenyl)isoxazole-5-yl)methyl)piperazine-1-carboxylate]: the fold induction at 10 µM was over 25.
As for `C=CCc1ccc(OC(F)(F)F)c(-c2cc(CN3CCNCC3)on2)c1` [Example 51, 3-(5-allyl-2-(trifluoromethoxy)phenyl)-5-(piperazine-1-ylmethyl)isoxazole], the fold induction at 10 µM is over 15.
On to `C=CCc1ccc(OC(F)(F)F)c(-c2cc(CN3CCN(C)CC3)on2)c1` [Example 52, 3-(5-allyl-2-(trifluoromethoxy)phenyl)-5-((4-methylpiperazine-1-yl)methyl)isoxazole], for which the fold induction at 10 µM is over 13.
The result for `CCCc1ccc(OC)c(-c2cc(CN3C[C@@H](C)O[C@@H](C)C3)on2)c1` [Example 53, (2S,6R)-4-((3-(2-methoxy-5-propylphenyl)isoxazole-5-yl)methyl)-2,6-dimethylmorpholine] reads 0.9.
`CCCc1ccc(OC)c(-c2cc(CN3CCC(OC)CC3)on2)c1` [Example 54, 3-(2-methoxy-5-propylphenyl)-5-((4-methoxypiperidine-1-yl)methyl)isoxazole]: the fold induction at 10 µM worked out at 2.8.
As for `CCCc1ccc(OC)c(-c2cc(CN3CCC(C(=O)O)CC3)on2)c1` [Example 55, 1-((3-(2-methoxy-5-propylphenyl)isoxazole-5-yl)methyl)piperidine-4-carboxylic acid], the fold induction at 10 µM was determined as 1.8.
As to `CCCc1ccc(OC)c(-c2cc(CN3CCc4sccc4C3)on2)c1` [Example 56, 5-((6,7-dihydrothieno[3,2-c]pyridin-5(4H)-yl)methyl)-3-(2-methoxy-5-propylphenyl)isoxazole], the fold induction at 10 µM was determined as 1.5.
For `CCCc1ccc(OC)c(-c2cc(CN3CCn4ccnc4C3)on2)c1` [Example 57, 5-((5,6-dihydroimidazo[1,2-a]pyrazin-7(8H)-yl)methyl)-3-(2-methoxy-5-propylphenyl)isoxazole], the fold induction at 10 µM amounted to 1.1.
Next, `COc1ccc(CCO)cc1-c1cc(CN2CCN(C)CC2)on1` [Example 61, 2-(4-methoxy-3-(5-((4-methylpiperazine-1-yl)methyl)isoxazole-3-yl)phenyl)ethan-1-ol]: 0.9; `COCCc1ccc(OC)c(-c2cc(CN3CCN(C)CC3)on2)c1` [Example 62, 3-(2-methoxy-5-(2-methoxyethyl)phenyl)-5-((4-methylpiperazine-1-yl)methyl)isoxazole]: 2.4.
As to `COc1ccc(C(C)C)cc1-c1cc(CN2CCN(C(C)=O)CC2)on1` [Example 63, 1-(4-((3-(5-isopropyl-2-methoxyphenyl)isoxazole-5-yl)methyl)piperazine-1-yl)ethan-1-on], the fold induction at 10 µM worked out at 1.9.
With `C=CCc1ccc(OC)c(-c2cc(COc3ncnc4ccccc34)on2)c1` [Example 65, 3-(5-allyl-2-methoxyphenyl)-5-((quinazoline-4-yloxy)methyl)isoxazole], the fold induction at 10 µM came to 1.8.
For `C=C(C)Cc1ccc(OC)c(-c2cc(CN3CCN(C(=O)OC(C)(C)C)CC3)on2)c1` [Example 66, tert-butyl 4-((3-(2-methoxy-5-(2-methylallyl)phenyl)isoxazole-5-yl)methyl)piperazine-1-carboxylate], the fold induction at 10 µM was over 18.
With `C=C(C)Cc1ccc(OC)c(-c2cc(CN3CCNCC3)on2)c1` [Example 67, 3-(2-methoxy-5-(2-methylallyl)phenyl)-5-(piperazine-1-ylmethyl)isoxazole], the fold induction at 10 µM was 22.7.

The fold induction is the signal under treatment as a multiple of the control signal.

The values above are taken from patent US20250214951A1, “3-PHENYLISOXAZOLE DERIVATIVE, AND PHARMACEUTICAL COMPOSITION FOR PREVENTING OR TREATING EYE DISEASE, CONTAINING SAME AS ACTIVE INGREDIENT” (VASTHERA CO., LTD., priority 2022, published 2025).
